Measurements published in patent EP1628646B1, “USE OF PPAR-GAMMA AGONISTS AS ANTI-INFECTIVE AGENTS” (priority 2003, dated 2004).
Blank lines part the entries; values can stand above or below the compound they belong to.

Tests used:
[1] = tested on: macrophages; assay: Production of oxidants by cultured macrophages, luminol chemiluminescence; format: cell-based, souris; conditions: for Production d'agents oxydants, avec ANS / Production d'agents oxydants, avec ODN / Production d'agents oxydants, sans antisens: 1 h; for Production d'agents oxydants, avec ANS: macrophages incubated 3 days with non-specific antisense ANS, control 6972 ± 90; for Production d'agents oxydants, avec ODN: macrophages incubated 3 days with specific antisense ODN, control 6795 ± 178; for Production d'agents oxydants, sans antisens: without antisense, control 6737 ± 139
Protocol: Concernant le traitement à l'antisens ODN, une séquence complémentaire à la région 3' non traduite de l'ARNm du MMR (Yamamoto et al., Infect Immun, 1997, 65:1077-82), on incube l'antisens ODN (100 nM) avec 10 µg de lipide cationique Lipofectin (GIBCO, France) à 37°C pendant 5 min selon la méthode Capacciolis et al. (Biochem Biophys Res Commun, 1998, 197:818-25) puis on l'ajoute aux macrophages cultivés dans le DMEM sans sérum. Les cellules sont incubées pendant 4 heures à 37°C avec 5 % de CO2 atmosphérique. Le milieu est remplacé par du SFM contenant l'antisens ODN mais sans Lipofectin. Les cultures sont incubées pendant 3 jours avec un changement journalier du milieu. La concentration de l'antisens ODN utilisée n'entraîne aucune toxicité significative sur les macrophages. Les macrophages non traités et les macrophages traités avec la Lipofectin seule servent de contrôle. La séquence nucléique de l'antisens ODN est exposée dans le tableau 2. Le même traitement est réalisé avec un antisens non spécifique de l'ARNm du MMR, l'antisens ANS dont la séquence nucléique est exposée dans le tableau 2.
Pour les tests de production d'agents oxydants, l'explosion respiratoire oxygène-dépendante des macrophages traités par les agonistes de PPARγ est mesurée par chimiluminescence. Les macrophages (2.10^5) sont transférés sur des boîtes de culture de 5 mm de diamètre. Après activation des cellules, la production d'agents oxydants par les macrophages, en présence ou en absence de C. albicans, est mesurée par chimiluminescence en présence de luminol à 37°C. L'émission de chimiluminescence est enregistrée en continu pendant 1 heure après incubation des cellules avec le luminol (66 µM). Pour évaluer la production de l'anion superoxyde (O2^-), la chimiluminescence est mesurée en présence de SOD, un inhibiteur spécifique de la production d'anion superoxyde. Pour évaluer la production d'oxyde nitrique (NO), la chimiluminescence est mesurée en présence de la L-NMMA (NG-monométhyl-arginine, un compétiteur spécifique de la L-arginine pour la production de NO). Aucun des inhibiteurs n'affecte la viabilité aux concentrations utilisées.
Les analyses statistiques se basent sur la mesure de la surface sous la courbe et sont exprimées en coups x secondes.
La capacité des macrophages à produire de l'anion superoxyde et du monoxyde d'azote et leur modulation par la 15d-PGJ2 ont été également étudiées par la méthode de chimiluminescence qui permet d'évaluer non seulement la production d'anions superoxydes mais aussi celle du peroxynitrite produit au cours de l'interaction entre le monoxyde d'azote et l'anion superoxyde.
Afin d'évaluer la production d'anion superoxyde, la chimiluminescence a été mesurée- en présence ou non de SOD (enzyme métabolisant O2^- en H2O2) alors que la production de monoxyde d'azote est évaluée en présence d'un compétiteur de l'arginine qui est la L-NMMA. Tableau 3 : Effet des ligands agonistes de PPARγ sur la production d'agents oxydants par les macrophages en présence ou en absence de levure. L'évaluation de la production d'agents oxydants a été déterminée sur des macrophages en culture par la technique de chimiluminescence.
Cette étude a été réalisée afin de déterminer si l'augmentation de la production d'agents oxydants sous l'effet des agonistes de PPARγ dépendait ou non de la modulation des récepteurs mannose par ces différents traitements. Dans cet objectif, la modulation de la production d'agents oxydants par les macrophages transfectés par l'antisens spécifique des ARNm des récepteurs mannose a été étudiée. Après traitement avec les agonistes de PPARγ, le dosage de la quantité d'agents oxydants produits par les macrophages transfectés a été réalisé par chimiluminescence. Les résultats sont présentés dans le tableau 5. Tableau 5 : Implication du récepteur mannose dans la production d'agents oxydants des macrophages traités par les ligands de PPARγ. […]

[2] = tested on: macrophages; assay: Production of oxidants by macrophages from mice treated in vivo, chemiluminescence; set-up: species or system souris; conditions: macrophages from SWISS and RAG-2 mice treated in vivo, vs control mice; figure 7
Excerpt: Afin d'évaluer la production d'agents oxydants (radicaux libres oxygénés et monoxyde d'azote) par les macrophages après la mise en culture des macrophages, les activités conjointes de la NADPH oxydase et de la NOsynthase inductible sont mesurées par chimiluminescence en présence d'une sonde chimiluminogène, Luminol (SIGMA, France) : 5-amino2,3-diydro-1,4-phtalazine-dione. La production de chimiluminescence sera analysée avec un luminomètre (Wallac Victor II, Finlande) piloté par un ordinateur. Le luminol permet, en présence d'agents oxydants, l'émission de photons captés par le photomultiplicateur de la chambre noire du luminomètre thermostaté à 37°C et transformés en impulsions électriques quantifiables. Les valeurs de chimiluminescence seront enregistrées continuellement pendant 1 heure après incubation des cellules avec le luminol ([…]) et en présence ou non de levures.
L'évaluation de la production d'agents oxydants par les macrophages, en présence ou en absence de la levure, a été déterminée sur des macrophages en culture par la technique de chimiluminescence. La figure 7 expose les résultats obtenus, en nombre de coups secondes (C x S) comptabilisés pendant 1 heure, pour chaque test.

[3] = tested on: récepteur mannose; assay: Mannose receptor expression on macrophages from mice treated in vivo, flow cytometry; conditions: cells from SWISS and RAG-2 mice treated in vivo; figure 8
Excerpt: (§1) Ces injections ont été renouvelées tous les jours durant 5 jours.
La quantité de molécule de mBSA fixée, reflet direct de la quantité de récepteurs mannose présente sur les cellules, a été analysée à l'aide d'un cytomètre en flux (FACScalibur, Becton Dickinson).

[4] = tested on: macrophages péritonéaux; assay: Phagocytosis of C. albicans by peritoneal macrophages from infected mice treated in vivo; conditions: treated i.p. (15d-PGJ2 0,01 µmoles, rosiglitazone 0,1 µmoles), 1 h challenge 1:1
Protocol: L'étude in vitro a été réalisée sur des lots de 10 souris, soit immunocompétentes (SWISS) ou immunodéficientes (RAG-2), qui ont été infectées par C. albicans.
(§2) Les souris hébergées dans des cages stériles ont été infectées par gavage de 500 µl d'une suspension de levures (2.10^7 cfu.ml^-1).
as §1
Après une incubation de 2 heures à l'étuve à 37°C, 5 % CO2, les cellules non adhérentes ont été éliminées par deux rinçages en PBS.
Afin d'évaluer la capacité des macrophages à phagocyter C. albicans, une technique basée sur l'incorporation de nucléotides radioactifs (Uracile tritié) au niveau de l'ARN des levures en voie de multiplication a été réalisée. Les levures pré-marquées sont déposées sur les tapis macrophagiques et mises à incuber à 37°C sous 5 % CO2. […] Sachant que la radioactivité mesurée dans le lysat est proportionnelle à la quantité de levures phagocytées et que celle mesurée dans les surnageants est proportionnelle à la quantité de levures externes, le pourcentage de levures phagocytées par rapport à la quantité de levures totales sera déterminé selon la formule suivante : %Phagocytose = (dpmlysat)/(dpmlysat + dpmsurnageant) [formula]

[5] = tested on: C. albicans; assay: Gastrointestinal candidiasis in mice: number of yeasts in organs by CFU and real-time quantitative PCR; conditions: SWISS and RAG-2 mice, oesophage, estomac, caecum, vs untreated mice, figure 10
Protocol: En parallèle, ce même protocole a été réalisé sur des souris SWISS immunocompétentes (Centre d'élevage - Etablissement Janvier, France).
as §2, §1
En cours et en fin d'expérimentation, des prélèvements sanguins ont été effectués afin de suivre la présence des levures dans le sang des souris. […] Au terme du protocole, les souris ont été euthanasiées et les différents organes ont été prélevés stérilement en vue de quantifier le nombre de levures présentes dans les différents organes par CFU et PCR quantitative en temps réel.
Pour quantifier le nombre de levures présentes dans les différents organes par CFU, après homogénéisation de chaque tissu, plusieurs dilutions sont réalisées et ensemencées dans des boîtes de culture. Les boîtes sont incubées à 35°C pendant 24 à 48 heures et le nombre de colonies est alors compté.
Pour quantifier le nombre de levures présentes dans les différents organes par PCR, après homogénéisation des différents organes, l'ADN total est extrait par la méthode phénol/chloroforme et soumis à une Q-PCR en temps réel. […] La détection se fait par hybridation de deux sondes marquées spécifiques de C. albicans (transfert de fluorescence).

[6] = tested on: cellules RAW 264.7; assay: Mannose receptor expression on RAW 264.7 cells transfected with CMV-luciférase or CMV-PPARγ, flow cytometry; conditions: 24 h, 1 µM 15d-PGJ2, 5 µM ciglitazone, 5 µM rosiglitazone; for Moyenne géométrique de l'intensité de fluorescence, CMV-PPAR-γ: RAW 264.7 transfected with CMV-PPARγ, control 53,87; for Moyenne géométrique de l'intensité de fluorescence, CMV-LUC: RAW 264.7 transfected with CMV-luciférase, control 47,51
[7] = tested on: macrophages péritonéaux; assay: Phagocytosis of [3H]uracil-labelled C. albicans by treated peritoneal macrophages in vitro; format: cell-based, souris; conditions: effect of the PPARγ antagonist added; figure 2
Protocol: Les macrophages, quant à eux, proviennent soit du péritoine de souris femelles SWISS (Centre d'élevage, Etablissement Janvier, France), soit du sang périphérique de donneurs sains. Ces macrophages, de souris ou d'humain, sont cultivés dans un milieu de culture SFM ("serum-free medium") optimisé pour la culture des macrophages, commercialisé par la société GibcoBRL, France. L'adhésion des cellules se produit après environ 2 heures de culture à 37°C sous atmosphère à 5 % de CO2. Les cellules n'adhérant pas à la boîte de culture sont éliminées par rinçage au PBS (GibcoBRL, France).
Pour étudier le mécanisme d'ingestion de C. albicans par les macrophages, des levures préalablement marquées par [^3H]uracile sont utilisées. Trois colonies de C. albicans sont dispersées dans 1 ml de bouillon Sabouraud contenant 150 µCi de [^3H]uracile. Après 24 heures de culture à 37°C sous agitation, les blastospores marqués sont centrifugés et resuspendus dans le SFM enrichi avec 1,8 % de glucose. Pour chaque essai, les monocouches de macrophages cultivées sur les plaques 24 puits sont traitées avec les agonistes de PPARγ pendant 20 heures, puis infectées avec C. albicans marqué et viable (dans une proportion macrophages/levures de 1:1) et laissées à incuber pendant 1 heure à 37°C, puis 2 heures à 5°C. Soumis à 5°C, les mécanismes de phagocytose sont bloqués. […]

[8] = tested on: récepteur mannose; assay: Mannose receptor expression on macrophages, FITC-mBSA flow cytometry; format: cell-based, souris; conditions: antagonist 0,1 µM, 24 h; figure 5
Protocol: Pour les essais de cytométrie en flux, les macrophages sont rincés au PBS glacé. Le marquage des MMR est réalisé pendant une heure, dans la glace, à la manière d'un ligand spécifique conjugué avec de l'albumine bovine mannosylée marquée à la fluorescéine FITC (840 nM) (SIGMA, France). Afin de faciliter la sélection des populations de cellules viables, une coloration à l'iodure de propidium est réalisée. Toutes les analyses sont effectuées par le FACScalibur (Becton-Dickinson) en utilisant le logiciel CellQuest.
Dans une deuxième étape, l'induction de l'expression du récepteur mannose des macrophages péritonéaux murins sous l'effet des différents traitements a été étudiée par cytométrie de flux en présence d'un antagoniste irréversible de PPARγ, le GW 9662.
Ces résultats sont confirmés par la figure 5 qui montre que l'augmentation de l'expression du récepteur mannose à la surface des macrophages sous l'effet de la 15d-PGJ2 est antagonisée par le GW 9662.
Pour ce faire, les macrophages ont été traités pendant 3 jours avec l'antisens spécifique de l'ARNm du récepteur mannose (ODN). […] Les cellules ont été ensuite incubées avec la mBSA marquée au FITC, puis analysées par cytométrie en flux. L'intensité de la fluorescence analysée est représentée à la figure 6.

SMILES: CCCCCC=CC=C1C(=O)C=CC1CC=CCCCC(=O)O (centres unmarked) [15d-PGJ2, 15-déoxy-Δ^12,14-prostaglandine J2]
Production d'agents oxydants, avec ANS [1]: 9678 ± 106 coups x secondes
Production d'agents oxydants, avec ODN [1]: 7012 ± 98 coups x secondes
Production d'agents oxydants, sans antisens [1]: 9161 ± 85 coups x secondes
Production d'agents oxydants pendant 1 heure, + Levures L-NMMA ([1]; with yeast, in presence of L-NMMA): 14258 ± 216 coups x secondes
Production d'agents oxydants pendant 1 heure, + Levures SOD ([1]; with yeast, in presence of SOD): 7228 ± 212 coups x secondes
Production d'agents oxydants pendant 1 heure, + Levures ([1]; with yeast, no inhibitor): 13905 ± 328 coups x secondes
Production d'agents oxydants pendant 1 heure, - Levure ([1]; without yeast): 7469 ± 238 coups x secondes
production basale d'agents oxydants par les macrophages [2]: la même quantité basale d'agents oxydants
quantité d'albumine bovine mannosylée marquée à la fluorescéine présente sur les macrophages [3]: significativement augmentée
Index de phagocytose, RAG-2 ([4]; RAG-2 mice infected with C. albicans, control 59,82 ± 2,43): 76,32 ± 1,89
Index de phagocytose, SWISS ([4]; SWISS mice infected with C. albicans, control 42,97 ± 1,20): 65,26 ± 2,11
colonisation des différents organes (nombre de levures) [5]: diminution significative de la colonisation
Moyenne géométrique de l'intensité de fluorescence, CMV-PPAR-γ [6]: 73
Moyenne géométrique de l'intensité de fluorescence, CMV-LUC [6]: 44,29

augmentation de l'expression du récepteur mannose à la surface des macrophages sous l'effet de la 15d-PGJ2 [8]: antagonisée
SMILES: O=C(Nc1ccccc1)c1cc([N+](=O)[O-])ccc1Cl [GW 9662]
augmentation de la capacité de phagocytose des macrophages traités par les agonistes de PPARγ [7]: inhibée

SMILES: CC1(COc2ccc(CC3SC(=O)NC3=O)cc2)CCCCC1 (centres unmarked) [ciglitazone]
Production d'agents oxydants, avec ANS [1]: 8322 ± 183 coups x secondes
Production d'agents oxydants, avec ODN [1]: 7109 ± 155 coups x secondes
Production d'agents oxydants, sans antisens [1]: 8398 ± 104 coups x secondes
Moyenne géométrique de l'intensité de fluorescence, CMV-PPAR-γ [6]: 64,3
Moyenne géométrique de l'intensité de fluorescence, CMV-LUC [6]: 38,51

SMILES: CN(CCOc1ccc(CC2SC(=O)NC2=O)cc1)c1ccccn1 (centres unmarked) [rosiglitazone]
Production d'agents oxydants, avec ANS [1]: 8813 ± 190 coups x secondes
Production d'agents oxydants, avec ODN [1]: 7197 ± 77 coups x secondes
Production d'agents oxydants, sans antisens [1]: 8960 ± 179 coups x secondes
Moyenne géométrique de l'intensité de fluorescence, CMV-PPAR-γ [6]: 61,51
Moyenne géométrique de l'intensité de fluorescence, CMV-LUC [6]: 37,94
